{
  "source": "patent US12358920B2",
  "about": "“Substituted pyrrolo[2,3-d]pyrimidines as selective CDK 4/6 inhibitors” (LUNELLA BIOTECH, INC., priority 2019, dated 2025)",
  "key": {"[1]": {"tested_on": "hTERT-BJ1", "assay": "Hoechst-based 2D-cell viability assay, hTERT-BJ1 monolayer", "set-up": "species or system human", "details": "for toxicity in the non-tumoral cell line hTERT-BJ1: up to the concentration of 90 μM", "description": "As used in the tables, “IC50 (MCF7 mammosphere)” refers to the half maximal inhibitory concentration in the 3D-mammosphere assay, using the ER+ breast cancer cell line, MCF7. The term “IC50 (MCF7 monolayer)” refers to the half maximal inhibitory concentration in the 2D-cell viability assay, using the ER+ breast cancer cell line, MCF7. The term “IC50 (BJ1 monolayer)” refers to the half maximal inhibitory concentration in the 2D-cell viability assay, using the immortalized non-tumoral fibroblast cell line, hTERT-BJ1. The term “SI (mammosphere/monolayer MCF7)” refers to the mammosphere selectivity index, a ratio between IC50 values comparing the biological activity in the 3D and 2D assays against MCF7. The term “SI (BJ1/MCF7 monolayer)” refers to the cancer selectivity index, a ratio between IC50 values comparing the biological activity in the cell viability assays against MCF7 and hTERT-BJ1. With respect to cell culture and reagents, the human breast adenocarcinoma cell line (MCF-7) was from the American Type Culture Collection (ATCC). hTERT-BJ1 cells were from Clontech, Inc. MCF-7 and hTERT-BJ1 cells were grown in DMEM supplemented with 10% fetal bovine serum, GlutaMAX and 1% penicillin-streptomycin and incubated at 37C in a humidified 5% CO2 incubator. The medium was changed 2-3 times/week. A Hoechst-based viability assay was used to characterize the selectivity of compounds according to the present approach, for the preferential targeting of cancer cells. Briefly, MCF7 cell monolayers were treated with a compound at concentrations ranging from 1 μM to 100 μM, for a period of one day. Cell viability was assessed using Hoechst 33342, a nuclear dye that stains DNA in live cells. The viability of normal human fibroblasts (hTERT-BJ1) treated with the compounds described herein was also assessed in parallel. Quantitation was performed with a plate-reader."}, "[2]": {"tested_on": "MCF7", "assay": "Mammosphere formation assay (3D-mammosphere assay)", "format": "cell-based, human", "details": "for SI (mammosphere/monolayer MCF7): mammosphere selectivity index, ratio between IC50 values in the 3D and 2D assays against MCF7; for inhibition of MCF7 cells in the mammosphere assay compared to parent compound: concentrations from 1 μM to 100 μM", "description": "As used in the tables, “IC50 (MCF7 mammosphere)” refers to the half maximal inhibitory concentration in the 3D-mammosphere assay, using the ER+ breast cancer cell line, MCF7. The term “IC50 (MCF7 monolayer)” refers to the half maximal inhibitory concentration in the 2D-cell viability assay, using the ER+ breast cancer cell line, MCF7. The term “IC50 (BJ1 monolayer)” refers to the half maximal inhibitory concentration in the 2D-cell viability assay, using the immortalized non-tumoral fibroblast cell line, hTERT-BJ1. The term “SI (mammosphere/monolayer MCF7)” refers to the mammosphere selectivity index, a ratio between IC50 values comparing the biological activity in the 3D and 2D assays against MCF7. The term “SI (BJ1/MCF7 monolayer)” refers to the cancer selectivity index, a ratio between IC50 values comparing the biological activity in the cell viability assays against MCF7 and hTERT-BJ1.\nFIGS. 1-3 are dose-response curves for various compounds described herein, using the mammosphere assay. The assay was performed using the MCF7 cell line. The curves are plotted as a mean of two independent experiments, and the standard deviation for each point is represented by vertical bars. The inhibition percentage is shown as a function of the log of the concentration (μM). […] Similar effects are expected for compounds having the general formula [1D].\nWith respect to cell culture and reagents, the human breast adenocarcinoma cell line (MCF-7) was from the American Type Culture Collection (ATCC). hTERT-BJ1 cells were from Clontech, Inc. MCF-7 and hTERT-BJ1 cells were grown in DMEM supplemented with 10% fetal bovine serum, GlutaMAX and 1% penicillin-streptomycin and incubated at 37C in a humidified 5% CO2 incubator. The medium was changed 2-3 times/week.\nMammosphere formation assay: A single cell suspension was prepared using enzymatic (lx Trypsin-EDTA, Sigma Aldrich, cat. #T3924), and manual disaggregation (25 gauge needle). Five thousand cells were plated with in mammosphere medium (DMEM-F12/B27/20 ng/ml EGF/PenStrep), under non-adherent conditions, in six wells plates coated with 2-hydroxyethylmethacrylate (poly-HEMA, Sigma, cat. #P3932). Cells were grown for 5 days and maintained in a humidified incubator at 37° C. at an atmospheric pressure in 5% (v/v) carbon dioxide/air. After 5 days, 3D spheroids with a diameter greater than 50 μm were counted using a microscope, fitted with a graticule eye-piece, and the percentage of cells which formed spheroids was calculated and normalized to one (1=100% MFE; mammosphere forming efficiency). Mammosphere assays were performed in triplicate and repeated three times independently."}, "[3]": {"tested_on": "MCF7", "assay": "Hoechst-based 2D-cell viability assay, MCF7 monolayer", "set-up": "species or system human", "description": "As used in the tables, “IC50 (MCF7 mammosphere)” refers to the half maximal inhibitory concentration in the 3D-mammosphere assay, using the ER+ breast cancer cell line, MCF7. The term “IC50 (MCF7 monolayer)” refers to the half maximal inhibitory concentration in the 2D-cell viability assay, using the ER+ breast cancer cell line, MCF7. The term “IC50 (BJ1 monolayer)” refers to the half maximal inhibitory concentration in the 2D-cell viability assay, using the immortalized non-tumoral fibroblast cell line, hTERT-BJ1. The term “SI (mammosphere/monolayer MCF7)” refers to the mammosphere selectivity index, a ratio between IC50 values comparing the biological activity in the 3D and 2D assays against MCF7. The term “SI (BJ1/MCF7 monolayer)” refers to the cancer selectivity index, a ratio between IC50 values comparing the biological activity in the cell viability assays against MCF7 and hTERT-BJ1. […] Cell viability was assessed using Hoechst 33342, a nuclear dye that stains DNA in live cells. The viability of normal human fibroblasts (hTERT-BJ1) treated with the compounds described herein was also assessed in parallel. Quantitation was performed with a plate-reader."}},
  "data": [
    {"smiles": "CCN1CCN(Cc2ccc(Nc3ncc(F)c(-c4cc(F)c5nc(C)n(C(C)C)c5c4)n3)nc2)CC1", "note": "[Abemaciclib, N-[5-[(4-ethylpiperazin-1-yl)methyl]pyridin-2-yl]-5-fluoro-4-(7-fluoro-2-methyl-3-propan-2-ylbenzimidazol-5-yl)pyrimidin-2-amine, reference compound]", "values": [
      {"measurement": "IC50", "setting": "[1]; Homo sapiens, Table 3, unit inferred, 2D-cell viability assay, hTERT-BJ1", "result": "30 ± 6", "unit": "µM"},
      {"measurement": "SI (mammosphere/monolayer MCF7)", "setting": "[2]", "result": ">250"}
    ]},
    {"smiles": "CCCCCCCCCCCCCC(=O)N1CCN(c2ccc(Nc3ncc4cc(C(=O)N(C)C)n(C5CCCC5)c4n3)nc2)CC1", "note": "[Compound [1C], 7-cyclopentyl-N,N-dimethyl-2-[[5-(4-tetradecanoylpiperazin-1-yl)-2-pyridyl]amino]pyrrolo[2,3-d]pyrimidine-6-carboxamide]", "values": [
      {"measurement": "potency against MCF7 cells compared to parent compound (dose-response curves, FIG. 4)", "setting": "[3]; Hoechst staining assay, MCF7, each concentration", "result": "more potent"},
      {"measurement": "toxicity in the non-tumoral cell line hTERT-BJ1", "setting": "[1]", "result": "non-toxic"},
      {"measurement": "improvement in potency in the 3D-mammosphere assay compared to the parent compound", "setting": "[2]; IC50 ratio vs. Ribociclib", "result": 7, "unit": "fold"},
      {"measurement": "inhibition of MCF7 cells in the mammosphere assay compared to parent compound", "setting": "[2]", "result": "remarkably improved inhibition"}
    ]},
    {"smiles": "CCCCCCCCCCCCCC(=O)N1CCN(c2ccc(Nc3ncc4c(C)c(C(C)=O)c(=O)n(C5CCCC5)c4n3)nc2)CC1", "note": "[Compound [2C], 6-acetyl-8-cyclopentyl-5-methyl-2-[[5-(4-tetradecanoylpiperazin-1-yl)-2-pyridyl]amino]pyrido[2,3-d]pyrimidin-7-one]", "values": [
      {"measurement": "toxicity in the 2D-cell viability assay", "setting": "[3]; MCF7 monolayer, up to a concentration of 30 μM", "result": "non-toxic"},
      {"measurement": "toxicity in the non-tumoral cell line hTERT-BJ1", "setting": "[1]", "result": "non-toxic"},
      {"measurement": "inhibition of MCF7 cells in the mammosphere assay compared to parent compound", "setting": "[2]", "result": "remarkably improved inhibition"}
    ]},
    {"smiles": "CC(=O)c1c(C)c2cnc(Nc3ccc(N4CCNCC4)cn3)nc2n(C2CCCC2)c1=O", "note": "[Palbociclib, 6-acetyl-8-cyclopentyl-5-methyl-2-(5-piperazin-1-yl-pyridin-2-ylamino)-8H-pyrido[2,3-d]pyrimidin-7-one, reference compound]", "values": [
      {"measurement": "toxicity in the non-tumoral cell line hTERT-BJ1", "setting": "[1]", "result": "non-toxic"},
      {"measurement": "SI (mammosphere/monolayer MCF7)", "setting": "[2]", "result": "non-selective"}
    ]},
    {"smiles": "CN(C)C(=O)c1cc2cnc(Nc3ccc(N4CCNCC4)cn3)nc2n1C1CCCC1", "note": "[Ribociclib, 7-cyclopentyl-N,N-dimethyl-2-[(5-piperazin-1-ylpyridin-2-yl)amino]pyrrolo[2,3-d]pyrimidine-6-carboxamide]", "values": [
      {"measurement": "potency on hTERT-BJ1 compared to Compound [1C] (dose-response curves, FIG. 7)", "setting": "[1]; Hoechst staining assay, hTERT-BJ1", "result": "more potent at most concentrations tested"},
      {"measurement": "toxicity in the non-tumoral cell line hTERT-BJ1", "setting": "[1]", "result": "non-toxic"}
    ]}
  ]
}
